Entries after “also recorded” stand apart in the source; their conditions may differ.
B1: GCGGATGAAGACTGGTGTCGATGCATGTGTAGTGCATTTCGAGCCGTTCTATTGGTGTGCCCTAAATACGAGCAAC (nucleic acid)
chain: GCGGATGAAGACTGGTGTCGATGCATGTGTAGTGCATTTCGAGCCGTTCTATTGGTGTGCCCTAAATACGAGCAAC
modifications: chemistry not given here
notes: DNA aptamer selected against the MAFG protein by SELEX

Columns and labels:
[1] = system: H23S cells; assay: Response to CDDP after overexpression of miR-7 candidate target genes; assay type: cell-based, human
Experimental: (§1) cDNA plasmids transfection: a Myc-DDK-tagged ORF clone of MAFG, ELK-1 or ABCA1 and the negative control pCMV6 were used for in transient transfection (OriGene, USA). H23 and A2780 cells were plated onto 60-mm dishes at 6×10^5 cells/dish and transfected with a negative control, MAFG, ELK-1 or ABCA1 vectors (IDs: RC221486; RC208921 and RC221861) using jet-PEI DNA Transfection Reagent (PolyPlus Transfection, USA). For stable overexpression, lentiviruses carrying ELK-1 cDNA (Applied Biological Materials, Canada) were obtained by cotransfecting 15 μg of the specific lentiviral vector (pGIPZ-nonsilencing or pLenti-GIII-CMV-hELK-1-GFP-2A-Puro) and […] of each packaging vector (pCD-NL-BH and pMD2-VSV-G) in 10 million HEK 293T cells using Lipofectamine 2000 (Invitrogen, USA). Supernatants were taken at 48 hours posttransfection. A2780S cells were plated onto 60-mm dishes at 1×10^5 cells/dish and transduced with supernatant carrying nonsilencing or ELK-1 lentivirus, and polybrene was added (5 μg/ml).
(§2) To determine if the expression of the miR-7 candidate target genes was linked to CDDP response, we conducted their in transient overexpression in the sensitive cells comparing their response to CDDP with their parental resistant and sensitive cell lines, both transfected with an empty vector.

[2] = system: A2780S cells; assay: as above; assay type: cell-based, human
Experimental: as §1, §2

[3] = system: H23R cells; assay: ROS production and viability after aptamer transfection and CDDP treatment; assay type: cell-based, human
Experimental: FIG. 7: Viability and ROS production assay in H23R cells after apMAFG6F transfection. Each experimental group was exposed for 72 h to 6 different CDDP concentrations, and data were normalized to each untreated control, set to 100%. The data represent the mean±SD of at least 2 independent experiments performed in duplicate at each drug concentration for each cell line analyzed.
H23/A2780 cells were cultured in 96-well black plates at density of 10,000 cells/well. Cells were treated with 6 different doses of CDDP for 24, 48 and 72 h in RPMI containing 10% FBS. Then treatments were removed and cells were loaded with the fluorescent probe 2′,7′-dichlorodihydrofluorescein diacetate (H2DCFDA) (10 μM) for 45 minutes in RPMI medium (FBS free). Cells were washed twice with RPMI (10% FBS), and fluorescence was recorded in a Fluostar Optima, each hour, over 4 hours period. […] ROS production was calculated dividing the mean H2DCFDA fluorescence by the mean viability. […] All experiments included cells treated with RPMI alone (Basal), and one well without cells as fluorescence basal.
H23/A2780 cells were cultured in 96-well black plates at density of 10,000 cells/well. […] Cells were washed twice with RPMI (10% FBS), and fluorescence was recorded in a Fluostar Optima at 520 nm after excitation at 485 nm. […] ROS production was calculated dividing the mean H2DCFDA fluorescence by the mean viability. […]

[4] = system: H1299 cells; assay: Expression of MAFG and HMOX1 in cells carrying the aptamer; assay type: cell-based, human; conditions: cells carrying apMAFG6F
Experimental: For semiquantitative RT-PCR, 500 ng of total RNA isolated from cell lines was used for RT reaction using PrimeScript™ RT Master (Clontech-Takara, USA) and subsequent semiquantitative PCR using Promega PCR Mix (Promega, USA) as previously described. Relative quantification was performed by measuring the intensity of band amplified using ImageJ software. Primers for HMOX1 (F: 5′-[…]-3′; R: 5′-[…]-3′), MAFG (F: 5′-[…]-3′; R: 5′-[…]-3′) and GAPDH (F: 5′-GAGAGACCCTCACTGCTG-3′; R: 5′-[…]-3′) were designed to include the probe from the array in order to assure the correct transcript identification.

[5] = molecular target: T1, MAFG in tumor samples of patients with lung cancer (Homo sapiens, UniProt O15525); assay: Aptahistochemistry in NSCLC tumor samples; conditions: 20 tumor samples classified by MAFG mRNA levels
T1 construct: from tissue; host or cells: Formalin-fixed paraffin-embedded NSCLC tumour sections
Experimental: The formalin-fixed and paraffin-embedded tissue sections of patients with lung cancer were baked 15 minutes at 60° C. Deparaffinization was performed by two washes of xylene for 10 minutes each. Tissue sections were rehydrated by a sequential wash in 100%, 90%, 80%, 70% ethanol and distilled water for 5 minutes each. Antigen retrieval was achieved by heat treatment in a pressure cooker for 2 minutes in 10 mM citrate buffer (pH 6.5). Endogenous peroxidase activity of tissues was blocked with 0.3% […]. The primary binding reaction was performed with 10 pmol/ml of digoxigenin-conjugated aptamers overnight at room temperature. The secondary binding reaction was performed with anti-digoxigenin conjugated with POD (Roche; 1/200 dilution in TBS) for 45 minutes. Staining was done using the Immunoperoxidase DAB kit (Master Diagnostica), according to the manufacturer's instructions. The sections were counterstained with hematoxylin.
We then took advantage of the aptacytochemistry to perform an aptamer-based histochemistry in 20 tumor samples from our cohort of patients with known mRNA levels of MAFG. […] To determine the correlation between the aptahistochemistry and the mRNA levels of MAFG, we calculated the percentage of cells with positive staining from the total number of cells computed at four different areas randomly selected for each sample.

[6] = versus sensitive line with empty vector

T1 sequence (O15525 whole entry): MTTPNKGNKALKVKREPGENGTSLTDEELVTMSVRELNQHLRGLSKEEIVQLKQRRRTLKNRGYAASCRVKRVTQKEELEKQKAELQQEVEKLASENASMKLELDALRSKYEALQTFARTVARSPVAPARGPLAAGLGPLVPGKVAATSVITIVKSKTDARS

Molecule	CDDP RI after ABCA1 overexpression ([1]; versus empty vector, not statistically significant (p=0.796))	CDDP-RI after MAFG overexpression [1, 6]	response to CDDP after transient ELK-1 overexpression ([2]; 48 h of exposure to the drug)	sensitivity to CDDP after stable ELK-1 overexpression ([2]; lentiviral transduction)	CDDP resistance index after MAFG overexpression [2, 6]	cell viability after aptamer transfection and CDDP ([3]; measured in parallel to ROS)	ROS production after aptamer transfection and CDDP ([3]; resistant cells carrying aptamer vs untransfected, p<0.005 at 4 μg/ml CDDP)	HMOX1 expression [4]	MAFG expression [4]	percentage of positive cells in samples with higher MAFG levels [5]
[NH2][Pt]([NH2])([Cl])[Cl] [CDDP, Cisplatin]	1.5	1.7	did not change the response to CDDP	did not change the sensitivity to CDDP	1.6	–	–	–	–	–
B1	–	–	–	–	–	decrease of cell viability; also recorded: decrease in cell viability	increase of ROS production; also recorded: linear dose-response relationship	decrease	decrease	significant increment in the percentage of positive cells

Source: patent US20200270310A1, “MAFG AS A POTENTIAL THERAPEUTIC TARGET TO RESTORE CHEMOSENSITIVITY IN PLATINUM-RESISTANT CANCER CELLS” (FUNDACÓIN PARA LA INVESTIGACIÓN BIOMÉDICA DEL HOSPITAL …, priority 2017, published 2020)
